Assay results taken from patent US20090136968A1, “Novel in vitro methods for studying receptors recognizing volatile compounds” (Chemcom S. A., priority 2005, published 2009).

Assays:
mOR-I7 [1] = biological target: T1, mOR-I7 (Mus musculus, UniProt Q9QWU6); test: Novel olfactory functional assay (CCBSA), microplate calcium flux (Fluo4, FDSS) on HEK 293T overexpressing mOR-I7; type: cell-based; conditions: for hits / potential ligands of mOR-I7 through the 4 screenings / ligands of mOR-I7 in two independent calcium flux screenings of 30 odorants: BSA as carrier; for hits / potential ligands of mOR-I7 through the 4 screenings: calcium flux and cAMP screenings together; for ligands of mOR-I7 in two independent calcium flux screenings of 30 odorants: standardized to 100 μM ATP; for hit / potential ligand of mOR-I7 in screening of 30 odorants: carrier fraction 4 (bOBP and BSA) incubated with 16 μl of 1M odorant, ratio mOR-I7 on Wt, standardized to 1 mM ATP
T1 construct: expressed in transfected cells; host or cells: HEK 293T
T1 sequence (Q9QWU6 1-327): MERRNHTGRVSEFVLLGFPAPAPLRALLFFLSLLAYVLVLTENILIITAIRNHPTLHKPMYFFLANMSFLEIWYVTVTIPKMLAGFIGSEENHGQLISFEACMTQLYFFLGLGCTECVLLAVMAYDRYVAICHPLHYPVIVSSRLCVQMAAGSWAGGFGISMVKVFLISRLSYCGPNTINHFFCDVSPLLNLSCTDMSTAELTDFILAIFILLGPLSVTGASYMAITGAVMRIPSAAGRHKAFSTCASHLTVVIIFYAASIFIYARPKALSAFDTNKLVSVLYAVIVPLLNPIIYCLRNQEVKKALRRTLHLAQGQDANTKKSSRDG
Description: (§1) A solution of BP including SA, OBP and/or olfactory mucus (see concentration in the text) was incubated in the presence of odorant in a sealed flask for 16 hours at 4° C. (FIG. 3A). Such incubated-BP solution was then used as tested complex on olfactory receptor-expressing cells. Prior to incubation with such complex, cells were incubated for 1 hour with 4 μM Fluo4-AM (Molecular Probe) in the presence of 1 mM probenecid, and then rinsed twice with Fluo4-AM free HBSS buffer. After injection of odorant-BP complex on OR expressing cells, calcium flux was followed by measuring fluorescence at 520 nm ([…]) on FDSS, a plate reader from Hamamatsu Photonics K.K. (Japan) at 25° C.
In an attempt to be closer to physiological process of olfaction and thereof to increase specificity and sensitivity of the cell-based assay described above, a novel olfactory functional assay was developed. Most of the time, mammalian smells volatile odorant molecules. However in the cell-based assay described above as in most cell-based assays, odorant molecules were injected into aqueous buffer. Such injection may lead to formation of micelles that can alter efficacy and specificity of ligands. Therefore a cell-based assay was developed focusing an a better solubilization of odorants. In summary, in a sealed flask, bovine olfactory mucus was incubated in the presence of an odorant (FIG. 3A). It was hereby tested if an odorant would be trapped and solubilized in that fluid. Thereafter, such solubilized odorant was injected onto cultured-cells overexpressing an olfactory receptor. Activation of this receptor could then be followed by conventional assay including fluorescent (FIGS. 3 B and C) and luminescent calcium assays.
For this novel assay, mOR-I7 activation was assessed by octanal. A constant volume of olfactory mucus was incubated in the presence of increasing amount of octanal ranging from 0 to 16 μl of a solution of 1M octanal. After 16 hours incubation at 4° C., bovine olfactory mucus was injected on HEK 293T overexpressing mOR-I7. Calcium flux was followed with Fluo4 on FDSS, a plate reader from Hamamatsu Photonics K.K. (Japan).
Capacity of fraction 4 to fulfil the role of odorant solubilizator was assessed in the newly proposed assay. Screening of 30 odorant molecules (FIG. 5A) was performed on HEK 293T wild type (FIG. 5C) or overexpressing mOR-I7 (FIG. 5B). Fraction 4 was incubated overnight at 4° C. […] These odorants led to at least one fold more activation of HEK 293T overexpressing mOR-I7 than the wild type counterpart. They can be classified into two groups. One group (FIG. 5 E (a) to (e)) gathers molecules that fit the olfactophore 1 depicted in FIG. 5 E (j). They are schematically made of 2 electronegative poles distanced by 6 carbons. They all contain a 6-8 carbon chain ended by an electronegative group as depicted by olfactophore 2 represented in FIG. 5 E (k).
However this fraction 4 contained two major proteins, bOBP and BSA. Thus the results of said Example could in this approach not rule out any implication of BSA into fraction 4 properties. Therefore the capacity of BSA to solubilize and thereof to enhance the efficacy of odorants in the novel cell based olfactory functional assay as described by the present invention has been tested. To be as close as possible to BSA concentration observed in fraction 4. BSA concentration was set up at 5×10^−6 M for the following experiments (marked by an arrow on FIG. 6 G). Fraction 4 and a solution of fatty acid-free BSA were incubated at 4° C. for 16 hours in the presence of increasing volume of 1M octanal. So-incubated solutions were then applied onto HEK 293T wt or overexpressing mOR-I7. Calcium-flux was followed on a plate reader (Hamamatsu Photonics K.K., Japan) with fluo4 as fluorescent dye (FIG. 6 A to F). […] Such phenomenon is usually observed in such fluorescence assay when increasing ligand concentrations are injected. […]

mOR-I7 [2] = biological target: T1, mOR-I7; conditions: literature (references); cited from earlier work
mOR-I7 [3] = biological target: T1, mOR-I7; test: cAMP level immunoassay (TROPIX) in the novel assay on HEK 293T overexpressing mOR-I7; type: cell-based; conditions: BSA solution incubated with 16 μl of 1 M odorant; 20 minutes incubation
Description: Similarly to the first step of the fluorescence-based functional assay described above, BP solutions including SA, OBP and/or olfactory mucus (see concentration in the text) were incubated in the presence of odorant in a sealed flask for 16 hours at 4° C. (FIG. 3A). Such odorant-BP complexes were then applied to cultured-cell for 20 minutes at 37° C. cAMP level was then measured using the Tropix kit according to the manufacturer procedures (Applied Biosystem).
As depicted in FIG. 1, binding of odorant molecule to olfactory receptor triggers a cascade of molecular events. In the most commonly accepted pathway, the first second messenger is cAMP synthesized by adenylate cyclase type III. Therefore, a mean to test olfactory receptor activation is to assess variation of cellular cAMP pool after olfactory receptor activation. It is noteworthy that such assay could be performed in parallel to calcium flux assay described above to validate hits obtained during a screening.
Specificity of the novel cell based olfactory functional assay according to the present invention was tested following mOR-I7 activation after injection of these three odorants and two non related odorant, vanilline and piperonyl isobutyrate. Olfactory receptor activation was detected by cellular cAMP pool immunoassay. A solution of BSA was incubated overnight at 4° C.
As discussed above (FIG. 1), activation of olfactory receptor can also be followed through cAMP synthesis. […] Results are expressed as percent of response observed after incubation with 100 μM forskolin, an activator of adenylate cyclases. […] Scheme of the odorant molecules are depicted in FIG. 7E.

hORL-424 = test: Fluorescent calcium flux assay on HEK 293T overexpressing hORL-424, odorant in assay buffer with or without bovine olfactory mucus; type: cell-based, human
Description: FIG. 2: Bovine olfactory mucus enhances hORL-424 activation by citronellal. (A and B) Calcium measurement was performed after activation of hORL-424 with citronellal in the presence of different amount of bovine olfactory mucus. 0 to 10 μl of mucus (0 to 10 μg of total protein) have been added to assay buffer. Calcium flux has been followed on FDSS (Hamamatsu Photonics K.K. plate reader, Japan) using Fluo4 as fluorescent dye. Histograms represent fluorescent signal observed in the presence or in the absence of 10 μl of bovine olfactory mucus. (C) Concentration response curve of HEK 293T overexpressing hORL-424 treated with citronellal. Gray boxes represent values obtained in the presence of bovine olfactory mucus. Calcium flux measurements have been performed on FDSS (Hamamatsu Photonics K.K. plate reader, Japan). (D and E) Traces obtained during single cell calcium imaging after addition of 500 μM octanal on HEK 293T overexpressing mOR-I7 in the absence (D) or in the presence of 10 μl of bovine olfactory mucus (E). Fura2 was used as fluorescent dye. Results are expressed as F340/F380 ratiometric measurement.
as §1
hORL-424, a human olfactory receptor, was overexpressed in HEK 293T, a […] (Hunter). […]

In the case of `CCCCCCCO` [heptanol], the “hits / potential ligands of mOR-I7 through the 4 screenings” value (from here on “hits / potential ligands”) (mOR-I7 [1]) is reported as “hits”, the “ligands of mOR-I7 in two independent calcium flux screenings of 30 odorants” value (mOR-I7 [1]) is reported as “consistent” and the “hit / potential ligand of mOR-I7 in screening of 30 odorants” value (shortened to “hit / potential ligand of mOR-I7”) (mOR-I7 [1]) is reported as “potential ligands of mOR-I7”. The “hit / potential ligand of mOR-I7” value (mOR-I7 [1]; listed as 1-heptanol) was “hits”.

With `CC(C)=CCCC(C)CCO` (stereo not shown) [citronellol] the “ligands of mOR-I7 in two independent calcium flux screenings of 30 odorants” value (mOR-I7 [1]) was “consistent” and the “hit / potential ligand of mOR-I7” value (mOR-I7 [1]) was “potential ligands of mOR-I7 and hits”.

With `COc1cc(CCC(C)=O)ccc1O` [Vanillyl acetone] the “hit / potential ligand of mOR-I7” value (mOR-I7 [1]) was “potential ligands of mOR-I7 and hits”.

With `COCCc1ccc(O)cc1` [4(2-methoxyethyl)phenol] the “hit / potential ligand of mOR-I7” value (mOR-I7 [1]) was “potential ligands of mOR-I7” and the “hit / potential ligand of mOR-I7” value (mOR-I7 [1]; listed as 4-(2-methoxyethyl)-phenol) was “hits”.

In the case of `CCCCCCC=O` [heptanal], the “hits / potential ligands” value (mOR-I7 [1]) is listed as “hits”, the “ligands of mOR-I7 in two independent calcium flux screenings of 30 odorants” value (mOR-I7 [1]) is listed as “consistent” and the “known activation of mOR-I7” value (mOR-I7 [2]) is listed as “activated specifically”. For the same compound, the “mOR-I7 activation by cellular cAMP pool” value (mOR-I7 [3]) was “mOR-I7 ligands”.

In the case of `CC(C)=CCCC(C)CC=O` (stereo not shown) [citronellal], the “hits / potential ligands” value (mOR-I7 [1]) is listed as “hits”, the “hit / potential ligand of mOR-I7” value (mOR-I7 [1]) is listed as “potential ligands of mOR-I7 and hits” and the “known activation of mOR-I7” value (mOR-I7 [2]) is listed as “activated specifically”. For the same compound, the “improvement of hORL-424 activation on addition of bovine olfactory mucus” value (hORL-424; bovine olfactory mucus in assay buffer vs absence, fluo4, 96-well plate) was “approximately 9 folds”, the “concentration necessary to reach maximum activation of hORL-424” value (hORL-424; conventional assay, no mucus) was “up to 10 mM” and the “concentration sufficient to reach maximum activation of hORL-424” value (hORL-424; olfactory mucus added in the assay buffer) was 0.5 mM. The “mOR-I7 activation by cellular cAMP pool” value (mOR-I7 [3]) was “mOR-I7 ligands”.

For `CCCCCCCCO` [octanol], the “hits / potential ligands” value (mOR-I7 [1]) was “hits”, the “ligands of mOR-I7 in two independent calcium flux screenings of 30 odorants” value (mOR-I7 [1]) was “consistent” and the “hit / potential ligand of mOR-I7” value (mOR-I7 [1]) was “potential ligands of mOR-I7”. For the same compound, the “hit / potential ligand of mOR-I7” value (mOR-I7 [1]; listed as 1-octanol) was “hits”.

With `CC(C)C(=O)OCc1ccc2c(c1)OCO2` [piperonyl isobutyrate] the “mOR-I7 activation by cellular cAMP pool” value (mOR-I7 [3]) was “did not lead to cAMP synthesis”.

For `COc1cc(C=O)ccc1O` [Vanilline], the “mOR-I7 activation by cellular cAMP pool” value (mOR-I7 [3]) was “did not lead to cAMP synthesis”.

With `CCCCC(=O)C(C)=O` [2,3 heptanedione] the “hits / potential ligands” value (mOR-I7 [1]) was “hits”, the “ligands of mOR-I7 in two independent calcium flux screenings of 30 odorants” value (mOR-I7 [1]) was “consistent” and the “hit / potential ligand of mOR-I7” value (mOR-I7 [1]) was “potential ligands of mOR-I7 and hits”.

With `CC/C=C\CCCCC=O` [cis-6-nonenal] the “hit / potential ligand of mOR-I7” value (mOR-I7 [1]) was “potential ligands of mOR-I7” and the “hit / potential ligand of mOR-I7” value (mOR-I7 [1]; listed as 6-cis-nonenal) was “hits”.
